Assay results reported in the NIST ThermoML archive (doi:10.1016/j.jct.2017.03.006).

Experiment: xn = mol fraction of the nth substance listed
Conditions: Liquid; for mass density: Vibrating tube method; for viscosity: Concentric cylinders viscometry

Cc1ccc(C)c(C)c1 [1,2,4-trimethylbenzene] + CCCCO
Conditions | mass density [kg/m3] | viscosity [mPa·s]
273.15 K, 100 kPa, x2 = 0 | 891.7 | –
273.15 K, 100 kPa, x2 = 0.1005 | 886.7 | –
273.15 K, 100 kPa, x2 = 0.2261 | 880.3 | –
273.15 K, 100 kPa, x2 = 0.2999 | 876.4 | –
273.15 K, 100 kPa, x2 = 0.3966 | 870.8 | –
273.15 K, 100 kPa, x2 = 0.5289 | 862.9 | –
273.15 K, 100 kPa, x2 = 0.6367 | 855.6 | –
273.15 K, 100 kPa, x2 = 0.7249 | 849.2 | –
273.15 K, 100 kPa, x2 = 0.9131 | 833.3 | –
273.15 K, 1000 kPa, x2 = 0 | 892.3 | –
273.15 K, 1000 kPa, x2 = 0.1005 | 887.1 | –
273.15 K, 1000 kPa, x2 = 0.2261 | 880.5 | –
273.15 K, 1000 kPa, x2 = 0.2999 | 876.7 | –
273.15 K, 1000 kPa, x2 = 0.3966 | 871.1 | –
273.15 K, 1000 kPa, x2 = 0.5289 | 863.2 | –
273.15 K, 1000 kPa, x2 = 0.6367 | 855.9 | –
273.15 K, 1000 kPa, x2 = 0.7249 | 849.5 | –
273.15 K, 1000 kPa, x2 = 0.7977 | 843.7 | –
273.15 K, 1000 kPa, x2 = 0.9131 | 833.7 | –
273.15 K, 5000 kPa, x2 = 0 | 894.6 | –
273.15 K, 5000 kPa, x2 = 0.1005 | 889.5 | –
273.15 K, 5000 kPa, x2 = 0.2261 | 883 | –
273.15 K, 5000 kPa, x2 = 0.2999 | 879.2 | –
273.15 K, 5000 kPa, x2 = 0.3966 | 873.6 | –
273.15 K, 5000 kPa, x2 = 0.5289 | 865.7 | –
273.15 K, 5000 kPa, x2 = 0.6367 | 858.5 | –
273.15 K, 5000 kPa, x2 = 0.7249 | 852.1 | –
273.15 K, 5000 kPa, x2 = 0.7977 | 846.3 | –
273.15 K, 5000 kPa, x2 = 0.9131 | 836.3 | –
273.15 K, 10000 kPa, x2 = 0 | 897.4 | –
273.15 K, 10000 kPa, x2 = 0.1005 | 892.4 | –
273.15 K, 10000 kPa, x2 = 0.2261 | 885.9 | –
273.15 K, 10000 kPa, x2 = 0.2999 | 882.1 | –
273.15 K, 10000 kPa, x2 = 0.3966 | 876.6 | –
273.15 K, 10000 kPa, x2 = 0.5289 | 868.8 | –
273.15 K, 10000 kPa, x2 = 0.6367 | 861.5 | –
273.15 K, 10000 kPa, x2 = 0.7249 | 855.2 | –
273.15 K, 10000 kPa, x2 = 0.7977 | 849.4 | –
273.15 K, 10000 kPa, x2 = 0.9131 | 839.4 | –
273.15 K, 20000 kPa, x2 = 0 | 902.8 | –
273.15 K, 20000 kPa, x2 = 0.1005 | 897.9 | –
273.15 K, 20000 kPa, x2 = 0.2261 | 891.4 | –
273.15 K, 20000 kPa, x2 = 0.2999 | 887.7 | –
273.15 K, 20000 kPa, x2 = 0.3966 | 882.2 | –
273.15 K, 20000 kPa, x2 = 0.5289 | 874.4 | –
273.15 K, 20000 kPa, x2 = 0.6367 | 867.2 | –
273.15 K, 20000 kPa, x2 = 0.7249 | 860.8 | –
273.15 K, 20000 kPa, x2 = 0.7977 | 855.2 | –
273.15 K, 20000 kPa, x2 = 0.9131 | 845.3 | –
273.15 K, 30000 kPa, x2 = 0 | 908 | –
273.15 K, 30000 kPa, x2 = 0.1005 | 903.1 | –
273.15 K, 30000 kPa, x2 = 0.2261 | 896.7 | –
273.15 K, 30000 kPa, x2 = 0.2999 | 893 | –
273.15 K, 30000 kPa, x2 = 0.3966 | 887.5 | –
273.15 K, 30000 kPa, x2 = 0.5289 | 879.7 | –
273.15 K, 30000 kPa, x2 = 0.6367 | 872.6 | –
273.15 K, 30000 kPa, x2 = 0.7249 | 866.3 | –
273.15 K, 30000 kPa, x2 = 0.7977 | 860.6 | –
273.15 K, 30000 kPa, x2 = 0.9131 | 850.8 | –
273.15 K, 40000 kPa, x2 = 0 | 912.9 | –
273.15 K, 40000 kPa, x2 = 0.1005 | 908 | –
273.15 K, 40000 kPa, x2 = 0.2261 | 901.7 | –
273.15 K, 40000 kPa, x2 = 0.2999 | 897.9 | –
273.15 K, 40000 kPa, x2 = 0.3966 | 892.5 | –
273.15 K, 40000 kPa, x2 = 0.5289 | 884.8 | –
273.15 K, 40000 kPa, x2 = 0.6367 | 877.7 | –
273.15 K, 40000 kPa, x2 = 0.7249 | 871.4 | –
273.15 K, 40000 kPa, x2 = 0.7977 | 865.8 | –
273.15 K, 40000 kPa, x2 = 0.9131 | 856 | –
273.15 K, 50000 kPa, x2 = 0 | 917.5 | –
273.15 K, 50000 kPa, x2 = 0.1005 | 912.6 | –
273.15 K, 50000 kPa, x2 = 0.2261 | 906.3 | –
273.15 K, 50000 kPa, x2 = 0.2999 | 902.7 | –
273.15 K, 50000 kPa, x2 = 0.3966 | 897.3 | –
273.15 K, 50000 kPa, x2 = 0.5289 | 889.6 | –
273.15 K, 50000 kPa, x2 = 0.6367 | 882.5 | –
273.15 K, 50000 kPa, x2 = 0.7249 | 876.2 | –
273.15 K, 50000 kPa, x2 = 0.7977 | 870.6 | –
273.15 K, 50000 kPa, x2 = 0.9131 | 860.9 | –
273.15 K, 60000 kPa, x2 = 0 | 921.9 | –
273.15 K, 60000 kPa, x2 = 0.1005 | 917.1 | –
273.15 K, 60000 kPa, x2 = 0.2261 | 910.9 | –
273.15 K, 60000 kPa, x2 = 0.2999 | 907.2 | –
273.15 K, 60000 kPa, x2 = 0.3966 | 901.8 | –
273.15 K, 60000 kPa, x2 = 0.5289 | 894.1 | –
273.15 K, 60000 kPa, x2 = 0.6367 | 887 | –
273.15 K, 60000 kPa, x2 = 0.7249 | 880.8 | –
273.15 K, 60000 kPa, x2 = 0.7977 | 875.2 | –
273.15 K, 60000 kPa, x2 = 0.9131 | 865.5 | –
273.15 K, 70000 kPa, x2 = 0 | 926.2 | –
273.15 K, 70000 kPa, x2 = 0.1005 | 921.4 | –
273.15 K, 70000 kPa, x2 = 0.2261 | 915.1 | –
273.15 K, 70000 kPa, x2 = 0.2999 | 911.4 | –
273.15 K, 70000 kPa, x2 = 0.3966 | 906.1 | –
273.15 K, 70000 kPa, x2 = 0.5289 | 898.5 | –
273.15 K, 70000 kPa, x2 = 0.6367 | 891.4 | –
273.15 K, 70000 kPa, x2 = 0.7249 | 885.2 | –
273.15 K, 70000 kPa, x2 = 0.7977 | 879.7 | –
273.15 K, 70000 kPa, x2 = 0.9131 | 870.1 | –
273.15 K, 80000 kPa, x2 = 0 | 930.3 | –
273.15 K, 80000 kPa, x2 = 0.1005 | 925.5 | –
273.15 K, 80000 kPa, x2 = 0.2261 | 919.3 | –
273.15 K, 80000 kPa, x2 = 0.2999 | 915.6 | –
273.15 K, 80000 kPa, x2 = 0.3966 | 910.3 | –
273.15 K, 80000 kPa, x2 = 0.5289 | 902.7 | –
273.15 K, 80000 kPa, x2 = 0.6367 | 895.7 | –
273.15 K, 80000 kPa, x2 = 0.7249 | 889.5 | –
273.15 K, 80000 kPa, x2 = 0.7977 | 883.9 | –
273.15 K, 80000 kPa, x2 = 0.9131 | 874.3 | –
273.15 K, 90000 kPa, x2 = 0 | 934.2 | –
273.15 K, 90000 kPa, x2 = 0.1005 | 929.4 | –
273.15 K, 90000 kPa, x2 = 0.2261 | 923.2 | –
273.15 K, 90000 kPa, x2 = 0.2999 | 919.6 | –
273.15 K, 90000 kPa, x2 = 0.3966 | 914.3 | –
273.15 K, 90000 kPa, x2 = 0.5289 | 906.7 | –
273.15 K, 90000 kPa, x2 = 0.6367 | 899.7 | –
273.15 K, 90000 kPa, x2 = 0.7249 | 893.6 | –
273.15 K, 90000 kPa, x2 = 0.7977 | 888 | –
273.15 K, 90000 kPa, x2 = 0.9131 | 878.4 | –
273.15 K, 100000 kPa, x2 = 0 | 938 | –
273.15 K, 100000 kPa, x2 = 0.1005 | 933.3 | –
273.15 K, 100000 kPa, x2 = 0.2261 | 927.1 | –
273.15 K, 100000 kPa, x2 = 0.2999 | 923.4 | –
273.15 K, 100000 kPa, x2 = 0.3966 | 918.2 | –
273.15 K, 100000 kPa, x2 = 0.5289 | 910.6 | –
273.15 K, 100000 kPa, x2 = 0.6367 | 903.6 | –
273.15 K, 100000 kPa, x2 = 0.7249 | 897.5 | –
273.15 K, 100000 kPa, x2 = 0.7977 | 891.9 | –
273.15 K, 100000 kPa, x2 = 0.9131 | 882.3 | –
273.15 K, 120000 kPa, x2 = 0 | 945.2 | –
273.15 K, 120000 kPa, x2 = 0.1005 | 940.6 | –
273.15 K, 120000 kPa, x2 = 0.2261 | 934.5 | –
273.15 K, 120000 kPa, x2 = 0.2999 | 930.8 | –
273.15 K, 120000 kPa, x2 = 0.3966 | 925.6 | –
273.15 K, 120000 kPa, x2 = 0.5289 | 918 | –
273.15 K, 120000 kPa, x2 = 0.6367 | 911.1 | –
273.15 K, 120000 kPa, x2 = 0.7249 | 905 | –
273.15 K, 120000 kPa, x2 = 0.7977 | 899.4 | –
273.15 K, 120000 kPa, x2 = 0.9131 | 889.9 | –
273.15 K, 140000 kPa, x2 = 0 | 952 | –
273.15 K, 140000 kPa, x2 = 0.1005 | 947.3 | –
273.15 K, 140000 kPa, x2 = 0.2261 | 941.3 | –
273.15 K, 140000 kPa, x2 = 0.2999 | 937.7 | –
273.15 K, 140000 kPa, x2 = 0.3966 | 932.5 | –
273.15 K, 140000 kPa, x2 = 0.5289 | 924.9 | –
273.15 K, 140000 kPa, x2 = 0.6367 | 918 | –
273.15 K, 140000 kPa, x2 = 0.7249 | 911.9 | –
273.15 K, 140000 kPa, x2 = 0.7977 | 906.4 | –
273.15 K, 140000 kPa, x2 = 0.9131 | 896.8 | –
293.15 K, 100 kPa, x2 = 0 | 875.1 | 0.888
293.15 K, 100 kPa, x2 = 0.1002 | – | 0.898
293.15 K, 100 kPa, x2 = 0.1005 | 870.2 | –
293.15 K, 100 kPa, x2 = 0.2261 | 863.7 | –
293.15 K, 100 kPa, x2 = 0.2327 | – | 0.949
293.15 K, 100 kPa, x2 = 0.3 | – | 1.001
293.15 K, 100 kPa, x2 = 0.3969 | – | 1.087
293.15 K, 100 kPa, x2 = 0.637 | – | 1.483
293.15 K, 100 kPa, x2 = 0.7975 | – | 1.975
293.15 K, 100 kPa, x2 = 0.9131 | – | 2.464
